From PMC12745320 (2025)

Legend:
[1] = system: PTL-1 (DNA, aptamer) GACGACGGCCAAGCTAACGGCTGCTAAGCATGTGGAGTCGTC; assay: ThT fluorescence displacement; conditions: 150 mM NaCl, 5 mM MgCl2 (main text; supplement: 2.0 mM MgCl2); 10 mM MES (supplement: 20 mM), pH 6.0; ThT displaced; tested at 200 μM
[2] = system: PTL-1 (DNA, aptamer) GACGACGGCCAAGCTAACGGCTGCTAAGCATGTGGAGTCGTC; assay: ThT fluorescence; conditions: 150 mM NaCl, 5 mM MgCl2 (main text; supplement: 2.0 mM MgCl2); 10 mM MES (supplement: 20 mM), pH 6.0; 1.0 μM aptamer, 2.0 μM ThT; described as non-specific binding
[3] = system: PTL-1 (DNA, aptamer) GACGACGGCCAAGCTAACGGCTGCTAAGCATGTGGAGTCGTC; assay: ITC; conditions: 150 mM NaCl, 5 mM MgCl2 (main text; supplement: 2.0 mM MgCl2); 10 mM MES (supplement: 20 mM), pH 6.0, 25 °C; 20 μM aptamer
[4] = system: PTL-1a (DNA, aptamer) GACGACTCCAAGAATCCGGCTGCTAAGCATGTGGAGTCGTC; assay: ITC; conditions: 150 mM NaCl, 5 mM MgCl2 (main text; supplement: 2.0 mM MgCl2); 10 mM MES (supplement: 20 mM), pH 6.0, 25 °C; typically 1.0 mM PTL in syringe
[5] = system: PTL-1b (DNA, aptamer) GACGACGGCGAAGCTAACGGCTGCTAAGCATGTCGAGTCGTC; assay: ITC; conditions: 150 mM NaCl, 5 mM MgCl2 (main text; supplement: 2.0 mM MgCl2); 10 mM MES (supplement: 20 mM), pH 6.0, 25 °C; typically 1.0 mM PTL in syringe
[6] = system: PTL-1c (DNA, aptamer) GACGACGGCCAAGAATCCGGCTGCTAAGCATGTGGAGTCGTC; assay: ITC; conditions: 150 mM NaCl, 5 mM MgCl2 (main text; supplement: 2.0 mM MgCl2); 10 mM MES (supplement: 20 mM), pH 6.0, 25 °C; typically 1.0 mM PTL in syringe
[7] = system: PTL-1 (DNA, aptamer) GACGACGGCCAAGCTAACGGCTGCTAAGCATGTGGAGTCGTC; assay: ThT fluorescence displacement titration; conditions: 150 mM NaCl, 5 mM MgCl2 (main text; supplement: 2.0 mM MgCl2), 10 mM MES (supplement: 20 mM), pH 6.0, ThT 2.0 μM displaced, 1.0 μM aptamer

Row | SMILES | binding [1] | also measured
1 | C=C1[C@@H](O)[C@@H]2O[C@]3(CC[C@H](/C=C/[C@@H](C)[C@@H]4CC(C)=C[C@@]5(O[C@H](C[C@@](C)(O)C(=O)O)CC[C@H]5O)O4)O3)CC[C@H]2O[C@@H]1[C@@H](O)C[C@H](C)[C@H]1O[C@@]2(CCCCO2)CC[C@H]1C | no | 
2 | CCCC[C@@H](C)[C@@H](OC(=O)C[C@@H](CC(=O)O)C(=O)O)[C@H](C[C@@H](C)C[C@H](O)CCCC[C@@H](O)C[C@H](O)[C@H](C)N)OC(=O)C[C@@H](CC(=O)O)C(=O)O | no | 
3 | COc1cc(NS(=O)(=O)c2ccc(N)cc2)nc(OC)n1 | no | 
4 | C[C@H]1CCCC(=O)CCC/C=C/c2cc(O)cc(O)c2C(=O)O1 | no | 
5 | Cc1ccc2c(c1)sc(-c1ccc(N(C)C)cc1)[n+]2C |  | binding [2]: yes
6 | Cc1ncc([N+](=O)[O-])n1CCO | no | 
7 | O=C1C=C2C(=CCOC2O)O1 (stereo not shown) |  | Kd [3]: 12.5 µM; binding [4]: no; binding [5]: no; binding [6]: no; apparent Kd [7]: 18.4 µM

Now from value to molecule, other results behind:

Row | binding [1] | SMILES | also measured
8 | no | CC1(C)S[C@@H]2[C@H](NC(=O)Cc3ccccc3)C(=O)N2[C@H]1C(=O)O | 
9 | no | CC1(C)S[C@@H]2[C@H](NC(=O)[C@H](N)c3ccccc3)C(=O)N2[C@H]1C(=O)O | 
10 | no | CS(=O)(=O)c1ccc([C@@H](O)[C@@H](CO)NC(=O)C(Cl)Cl)cc1 | 
11 | no | C[C@@H]1C[C@H]2[C@@H]3CCC4=CC(=O)C=C[C@]4(C)[C@@]3(F)[C@@H](O)C[C@]2(C)[C@@]1(O)C(=O)CO | 
12 | no | C[C@@H]1Cc2c(Cl)cc(C(=O)N[C@@H](Cc3ccccc3)C(=O)O)c(O)c2C(=O)O1 | 
13 | no | NC(=O)N1c2ccccc2C=Cc2ccccc21 | 
14 | no | Nc1ccc(S(=O)(=O)Nc2cnc3ccccc3n2)cc1 | 
15 | no | O=C(N[C@H](CO)[C@H](O)c1ccc([N+](=O)[O-])cc1)C(Cl)Cl | 
